Test system: TPM3-NTRK1-wt IC50 / primary target (e.g. CD74-ROS1-wt) IC50, Ba/F3 cells
Assay: Cell assay TRKA selectivity (TRKA potency divided by primary target potency)
Format: cell-based
Conditions: for TPM3-NTRK1-wt/CD74-ROS1-G2032R: TRKA selectivity ratio: TPM3-NTRK1-wt IC50 / CD74-ROS1-G2032R IC50, Ba/F3 cells; for TPM3-NTRK1-wt/CD74-ROS1-wt: TRKA selectivity ratio: TPM3-NTRK1-wt IC50 / CD74-ROS1-wt IC50, Ba/F3 cells; for TPM3-NTRK1-wt/EML4-ALK-L1196M-G1202R: TRKA selectivity ratio: TPM3-NTRK1-wt IC50 / EML4-ALK-L1196M-G1202R IC50, Ba/F3 cells; for TPM3-NTRK1-wt/EML4-ALK-wt: TRKA selectivity ratio: TPM3-NTRK1-wt IC50 / EML4-ALK-wt IC50, Ba/F3 cells
How it was run: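 IL-3-independent Ba/F3 lines stably expressing TPM3-TRKA or the primary fusion (e.g. CD74-ROS1 wt) were exposed to 3-fold compound dilutions for 72 h. Viability was read by CellTiter-Glo luminescence, with IC50 from four-parameter logistic fit. Selectivity is TPM3-NTRK1 IC50 divided by primary-target IC50, binned A (>30-fold) to D (<1).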

Row | Structure (SMILES) | TPM3-NTRK1-wt/CD74-ROS1-G2032R | TPM3-NTRK1-wt/CD74-ROS1-wt | TPM3-NTRK1-wt/EML4-ALK-L1196M-G1202R | TPM3-NTRK1-wt/EML4-ALK-wt
1 | Cc1nc2c(s1)Cc1c(C)nn(CC3CC3)c1-c1cnc(N)c(c1)O[C@H](C)c1cc(F)ccc1-2 [Example 134, (19R)-3-(cyclopropylmethyl)-16-fluoro-5,10,19-trimethyl-20-oxa-9-thia-3,4,11,23-tetraazapentacyclo[19.3.1.0^2,^6.0^8,^12.0^13,^18]pentacosa-1(24),2(6),4,8(12),10,13,15,17,21(25),22-decaen-22-amine] | A (bin A for very high selectivity, ratio>30-fold) | A (bin A for very high selectivity, ratio>30-fold) | A (bin A for very high selectivity, ratio>30-fold) | A (bin A for very high selectivity, ratio>30-fold)
2 | Cc1cc2n(n1)-c1ccc(F)cc1[C@@H](C)Oc1cc(cnc1N)-c1c(C#N)ncn1C2 [Example 61, (19R)-22-amino-16-fluoro-10,19-dimethyl-20-oxa-4,6,11,12,23-pentaazapentacyclo[19.3.1.0^2,^6.0^8,^12.0^13,^18]pentacosa-1(24),2,4,8,10,13,15,17,21(25),22-decaene-3-carbonitrile] | A (bin A for very high selectivity, ratio>30-fold) | A (bin A for very high selectivity, ratio>30-fold) | B (bin B for high selectivity, ratio>10-fold) | A (bin A for very high selectivity, ratio>30-fold)
3 | Cc1nc2c(s1)Cc1c(c(C#N)nn1C)-c1cnc(N)c(c1)OCc1cc(F)ccc1-2 [Example 115, 22-amino-16-fluoro-5,10-dimethyl-20-oxa-9-thia-4,5,11,23-tetraazapentacyclo[19.3.1.0^2,^6.0^8,^12.0^13,^18]pentacosa-1(24),2(6),3,8(12),10,13,15,17,21(25),22-decaene-3-carbonitrile] | A (bin A for very high selectivity, ratio>30-fold) | A (bin A for very high selectivity, ratio>30-fold) | B (bin B for high selectivity, ratio>10-fold) | A (bin A for very high selectivity, ratio>30-fold)
4 | CCn1ncc2c1-c1cnc(N)c(c1)O[C@H](C)c1cc(F)ccc1-n1nc(Cl)cc1C2 [Example 74, (19R)-10-chloro-3-ethyl-16-fluoro-19-methyl-20-oxa-3,4,11,12,23-pentaazapentacyclo[19.3.1.0^2,^6.0^8,^12.0^13,^18]pentacosa-1(24),2(6),4,8,10,13,15,17,21(25),22-decaen-22-amine] | A (bin A for very high selectivity, ratio>30-fold) | A (bin A for very high selectivity, ratio>30-fold) | B (bin B for high selectivity, ratio>10-fold) | A (bin A for very high selectivity, ratio>30-fold)
5 | CCn1ncc2c1-c1cnc(N)c(c1)O[C@H](C)c1cc(F)ccc1-n1nc(Br)cc1C2 [Example 80, (19R)-10-bromo-3-ethyl-16-fluoro-19-methyl-20-oxa-3,4,11,12,23-pentaazapentacyclo[19.3.1.0^2,^6.0^8,^12.0^13,^18]pentacosa-1(24),2(6),4,8,10,13,15,17,21(25),22-decaen-22-amine] | A (bin A for very high selectivity, ratio>30-fold) | A (bin A for very high selectivity, ratio>30-fold) | B (bin B for high selectivity, ratio>10-fold) | A (bin A for very high selectivity, ratio>30-fold)
6 | COc1cc2n(n1)-c1ccc(F)cc1[C@@H](C)Oc1cc(cnc1N)-c1c(nnn1CC1CC1)C2 [Example 144, (19R)-3-(cyclopropylmethyl)-16-fluoro-10-methoxy-19-methyl-20-oxa-3,4,5,11,12,23-hexaazapentacyclo[19.3.1.0^2,^6.0^8,^12.0^13,^18]pentacosa-1(24),2(6),4,8,10,13,15,17,21(25),22-decaen-22-amine] | A (bin A for very high selectivity, ratio>30-fold) | A (bin A for very high selectivity, ratio>30-fold) | B (bin B for high selectivity, ratio>10-fold) | A (bin A for very high selectivity, ratio>30-fold)
7 | CC(C)n1nc2c(c1C#N)-c1cnc(N)c(c1)O[C@H](C)c1cc(F)ccc1-n1nccc1C2 [Example 118, (19R)-22-amino-16-fluoro-19-methyl-4-(propan-2-yl)-20-oxa-4,5,11,12,23-pentaazapentacyclo[19.3.1.0^2,^6.0^8,^12.0^13,^18]pentacosa-1(24),2,5,8,10,13,15,17,21(25),22-decaene-3-carbonitrile] | D (bin D for low selectivity, ratio<1) | A (bin A for very high selectivity, ratio>30-fold) | D (bin D for low selectivity, ratio<1) | A (bin A for very high selectivity, ratio>30-fold)
8 | C[C@H]1Oc2cc(cnc2N)-c2c(CC(F)F)nn(C)c2Cc2cn(C)nc2-c2ccc(F)cc21 [Example 172, (19R)-3-(2,2-difluoroethyl)-16-fluoro-5,10,19-trimethyl-20-oxa-4,5,10,11,23-pentaazapentacyclo[19.3.1.0^2,^6.0^8,^12.0^13,^18]pentacosa-1(24),2(6),3,8,11,13,15,17,21(25),22-decaen-22-amine] | A (bin A for very high selectivity, ratio>30-fold) | A (bin A for very high selectivity, ratio>30-fold) | A (bin A for very high selectivity, ratio>30-fold) | A (bin A for very high selectivity, ratio>30-fold)
9 | C[C@H]1Oc2cc(cnc2N)-c2c(cnn2CC2CC2)Cc2cc(C(F)F)nn2-c2ccc(F)cc21 [Example 130, (19R)-3-(cyclopropylmethyl)-10-(difluoromethyl)-16-fluoro-19-methyl-20-oxa-3,4,11,12,23-pentaazapentacyclo[19.3.1.0^2,^6.0^8,^12.0^13,^18]pentacosa-1(24),2(6),4,8,10,13,15,17,21(25),22-decaen-22-amine] | A (bin A for very high selectivity, ratio>30-fold) | A (bin A for very high selectivity, ratio>30-fold) | B (bin B for high selectivity, ratio>10-fold) | A (bin A for very high selectivity, ratio>30-fold)
10 | C[C@H]1Oc2cc(cnc2N)-c2c(cnn2CC2CC2)Cc2cn(C)nc2-c2ccc(F)cc21 [Example 121, (19R)-3-(cyclopropylmethyl)-16-fluoro-10,19-dimethyl-20-oxa-3,4,10,11,23-pentaazapentacyclo[19.3.1.0^2,^6.0^8,^12.0^13,^18]pentacosa-1(24),2(6),4,8,11,13,15,17,21(25),22-decaen-22-amine] | A (bin A for very high selectivity, ratio>30-fold) | A (bin A for very high selectivity, ratio>30-fold) | A (bin A for very high selectivity, ratio>30-fold) | A (bin A for very high selectivity, ratio>30-fold)
11 | CCn1ncc2c1-c1cnc(N)c(c1)O[C@H](C)c1cc(F)ccc1-c1nn(C)c(C)c1C2 [Example 87, (19R)-3-ethyl-16-fluoro-9,10,19-trimethyl-20-oxa-3,4,10,11,23-pentaazapentacyclo[19.3.1.0^2,^6.0^8,^12.0^13,^18]pentacosa-1(24),2(6),4,8,11,13,15,17,21(25),22-decaen-22-amine] | A (bin A for very high selectivity, ratio>30-fold) | A (bin A for very high selectivity, ratio>30-fold) | C (bin C for moderate selectivity, ratio≥1) | A (bin A for very high selectivity, ratio>30-fold)
12 | CCn1nc(Cl)c2c1-c1cnc(N)c(c1)O[C@H](C)c1cc(F)cnc1-c1nn(C)cc1C2 [Example 142, (19R)-5-chloro-3-ethyl-16-fluoro-10,19-dimethyl-20-oxa-3,4,10,11,14,23-hexaazapentacyclo[19.3.1.0^2,^6.0^8,^12.0^13,^18]pentacosa-1(24),2(6),4,8,11,13,15,17,21(25),22-decaen-22-amine] | A (bin A for very high selectivity, ratio>30-fold) |  | B (bin B for high selectivity, ratio>10-fold) | 
13 | C[C@H]1Oc2cc(cnc2N)-c2c(c(C#N)nn2CC2CC2)Cc2cccnc2-c2ccc(F)cc21 [Example 123, (20R)-23-amino-3-(cyclopropylmethyl)-17-fluoro-20-methyl-21-oxa-3,4,12,24-tetraazapentacyclo[20.3.1.0^2,^6.0^8,^13.0^14,^19]hexacosa-1(25),2(6),4,8(13),9,11,14,16,18,22(26),23-undecaene-5-carbonitrile] | C (bin C for moderate selectivity, ratio≥1) | A (bin A for very high selectivity, ratio>30-fold) | C (bin C for moderate selectivity, ratio≥1) | A (bin A for very high selectivity, ratio>30-fold)
14 | CCn1ncc2c1-c1cnc(N)c(c1)O[C@H](C)c1cc(F)ccc1-c1ncccc1C2 [Example 3, (20R)-3-ethyl-17-fluoro-20-methyl-21-oxa-3,4,12,24-tetraazapentacyclo[20.3.1.0^2,^6.0^8,^13.0^14,^19]hexacosa-1(25),2(6),4,8(13),9,11,14,16,18,22(26),23-undecaen-23-amine] | A (bin A for very high selectivity, ratio>30-fold) |  | B (bin B for high selectivity, ratio>10-fold) | A (bin A for very high selectivity, ratio>30-fold)

Reference: US11667649B2, “Heteroaromatic macrocyclic ether chemotherapeutic agents” (Nuvalent, Inc., priority 2020, dated 2023)
